According to US10617680B2 (CELGENE QUANTICEL RESEARCH, INC., priority 2017, dated 2020):

Target: CBP (Homo sapiens (Human), UniProt Q92793)
Assay: In vitro CBP inhibition (AlphaScreen, biotinylated H4-tetraacetyl peptide)
Type: binding
Conditions: AlphaScreen, Table 29; read-out: CBP IC50
Procedure, shortened: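 His-tagged CBP expressed in E. coli (50 nM final) incubated with biotinylated H4K5/8/12/16(Ac) peptide (20 nM final) in 50 mM HEPES pH 7.3, 10 mM NaCl, 0.25 mM TCEP, 0.1% BSA, 0.005% Brij-35, 0.4% DMSO, 20 min at room temp.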

Chain of CBP (Q92793 1081-1197): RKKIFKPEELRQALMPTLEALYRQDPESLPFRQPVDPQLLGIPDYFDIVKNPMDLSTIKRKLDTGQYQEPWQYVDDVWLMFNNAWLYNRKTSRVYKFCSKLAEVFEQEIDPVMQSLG

**Q.** With `COc1cc(-c2cc(=O)n(C)cc2-c2cnn(-c3ccccc3Cl)c2)ccn1` [Example 317, 5-(1-(2-chlorophenyl)-1H-pyrazol-4-yl)-2′-methoxy-1-methyl-[4,4′-bipyridin]-2(1H)-one] as the molecule, how does the IC50 read?
**A.** Its IC50 is under 500 nM.

**Q.** With `Cc1cc(-c2cnn(C(C)c3ccccc3)c2)cn(C)c1=O` (stereo not shown) [Example 17, 1,3-dimethyl-5-(1-(1-phenylethyl)-1H-pyrazol-4-yl)pyridin-2(1H)-one] as the molecule, how does the IC50 read?
**A.** The IC50 was under 500 nM.

**Q.** Which IC50 does the source give for `CCOc1ccc(-c2cc(=O)n(C)cc2-c2cnn(-c3ccccc3C(=O)NC#N)c2)cn1` [Example 296, N-cyano-2-(4-(6-ethoxy-1′-methyl-6′-oxo-1′,6′-dihydro-[3,4′-bipyridin]-3′-yl)-1H-pyrazol-1-yl)benzamide] here?
**A.** The IC50 was under 500 nM.

**Q.** With `Cn1cc(-c2cnn(-c3cccc(F)c3C#N)c2)c(-c2ccc(C3CC3)nc2)cc1=O` [Example 374, 2-[4-[4-(6-cyclopropyl-3-pyridyl)-1-methyl-6-oxo-3-pyridyl]pyrazol-1-yl]-6-fluoro-benzonitrile] as the molecule, how does the IC50 read?
**A.** Its IC50 is under 500 nM.

**Q.** For `Cn1cc(-c2cc(=O)n(C)cc2-c2cnn(-c3ccccc3C#N)c2)cn1` [Example 204, 2-{4-[1-Methyl-4-(1-methyl-1H-pyrazol-4-yl)-6-oxo-1,6-dihydro-pyridin-3-yl]-pyrazol-1-yl}-benzonitrile], which IC50 is on record?
**A.** The IC50 was under 500 nM.

**Q.** `Cn1cc(-c2cnn(Cc3ccccc3)c2)c2ccccc2c1=O` [Example 8, 4-(1-benzyl-1H-pyrazol-4-yl)-2-methyliso-quinolin-1(2H)-one] was tested. Which IC50 did it give?
**A.** The IC50 was under 500 nM.

**Q.** Which IC50 does the source give for `CC(c1ccccc1)n1cc(-c2cn(C)c(=O)cc2-c2ccc(OCCCN(C)C)nc2)cn1` (stereo not shown) [Example 313, 6-(3-(dimethylamino)propoxy)-1′-methyl-5′-(1-(1-phenylethyl)-1H-pyrazol-4-yl)-[3,4′-bipyridin]-2′(1′H)-one] here?
**A.** Its IC50 is under 500 nM.

**Q.** For `CCOc1cc(=O)n(C)cc1-c1cnn2c1CCC2` [Example 95, 5-(5,6-dihydro-4H-pyrrolo[1,2-b]-pyrazol-3-yl)-4-ethoxy-1-methylpyridin-2(1H)-one], which IC50 is on record?
**A.** The IC50 was under 500 nM.

**Q.** With `COc1cccc(-c2cc(=O)n(C)cc2-c2cnn(Cc3ccccc3)c2)c1` [Example 113, 5-(1-benzyl-1H-pyrazol-4-yl)-4-(3-methoxyphenyl)-1-methyl-pyridin-2(1H)-one] as the molecule, how does the IC50 read?
**A.** The IC50 was under 500 nM.

**Q.** Which IC50 does the source give for `Cn1cc(-c2cnn(-c3cccc(Cl)c3C#N)c2)c(-c2cnc(NC3CCCC3)nc2)cc1=O` [Example 329, 2-chloro-6-(4-(4-(2-(cyclopentylamino)pyrimidin-5-yl)-1-methyl-6-oxo-1,6-dihydropyridin-3-yl)-1H-pyrazol-1-yl)benzonitrile] here?
**A.** Its IC50 is under 500 nM.

**Q.** With `Cn1cc(-c2cnn(Cc3ccccc3)c2)c(N2CCC(S(C)(=O)=O)C2)cc1=O` (stereo not shown) [Example 37, 5-(1-Benzyl-1H-pyrazol-4-yl)-4-(3-methanesulfonyl-pyrrolidin-1-yl)-1-methyl-1H-pyridin-2-one] as the molecule, how does the IC50 read?
**A.** The IC50 was under 500 nM.

**Q.** How did the IC50 turn out when `Cc1cccc(C)c1-c1cc(=O)n(C)cc1-c1cnn(Cc2ccccc2)c1` [Example 189, 5-(1-Benzyl-1H-pyrazol-4-yl)-4-(2,6-dimethyl-phenyl)-1-methyl-1H-pyridin-2-one] was run?
**A.** Its IC50 is over 5000 nM.

**Q.** With `CN1CCN(c2ncc(-c3cc(=O)n(C)cc3-c3cnn(-c4cccc(Cl)c4C#N)c3)cn2)CC1` [Example 337, 2-chloro-6-(4-(1-methyl-4-(2-(4-methylpiperazin-1-yl)pyrimidin-5-yl)-6-oxo-1,6-dihydropyridin-3-yl)-1H-pyrazol-1-yl)benzonitrile] as the molecule, how does the IC50 read?
**A.** The IC50 was under 500 nM.

**Q.** `Cc1ccc(-c2cc(=O)n(C)cc2-c2cnn(-c3ccccc3C#N)c2)cn1` [Example 377, 2-(4-(1′,6-dimethyl-6′-oxo-1′,6′-dihydro-[3,4′-bipyridin]-3′-yl)-1H-pyrazol-1-yl)benzonitrile] was tested. Which IC50 did it give?
**A.** Its IC50 is under 500 nM.

**Q.** `COc1cccc(C(C)n2cc(-c3ccc(=O)n(C)c3)cn2)c1` (stereo not shown) [Example 28, 5-(1-(1-(3-methoxy-phenyl)ethyl)-1H-pyrazol-4-yl)-1-methyl-pyridin-2(1H)--one] was tested. Which IC50 did it give?
**A.** Its IC50 is under 500 nM.

**Q.** With `CC1CN(c2cc(=O)n(C)cc2-c2cnn(C(C)c3ccccc3)c2)C1` (stereo not shown) [Example 54, 1-methyl-4-(3-methylazetidin-1-yl)-5-(1-(1-phenylethyl)-1H-pyrazol-4-yl)pyridin-2(1H)-one] as the molecule, how does the IC50 read?
**A.** Its IC50 is under 500 nM.

**Q.** With `CCCOc1cc(=O)n(C)cc1-c1cnn(Cc2ccccc2)c1` [Example 165, 5-(1-Benzyl-1H-pyrazol-4-yl)-1-methyl-4-propoxy-1H-pyridin-2-one] as the molecule, how does the IC50 read?
**A.** Its IC50 is under 500 nM.

**Q.** `Cn1cc(-c2cnn(-c3cccc(F)c3C#N)c2)c(-c2ccc(NC3CCCC3)nc2)cc1=O` [Example 343, 2-(4-(6-(cyclopentylamino)-1′-methyl-6′-oxo-1′,6′-dihydro-[3,4′-bipyridin]-3′-yl)-1H-pyrazol-1-yl)-6-fluorobenzonitrile] was tested. Which IC50 did it give?
**A.** Its IC50 is under 500 nM.

**Q.** For `C[C@@H](c1ccccc1)n1cc(-c2cn(C)c(=O)cc2N2CCCC2)cn1` [Example 47, (S)-1-methyl-5-(1-(1-phenylethyl)-1H-pyrazol-4-yl)-4-(pyrrolidin-1-yl)pyridin-2(1H)-one], which IC50 is on record?
**A.** Its IC50 is under 500 nM.

**Q.** Which IC50 does the source give for `CN(C)C(=O)c1ccn(-c2cc(=O)n(C)cc2-c2cnn(Cc3ccccc3)c2)c1` [Example 78, 1-(5-(1-benzyl-1H-pyrazol-4-yl)-1-methyl-2-oxo-1,2-dihydropyridin-4-yl)-N,N-dimethyl-1H-pyrrole-3carboxamide] here?
**A.** The IC50 was under 500 nM.

**Q.** How did the IC50 turn out when `Cn1cc(-c2cnn(Cc3ccccc3C#N)c2)ccc1=O` [Example 3, 2-((4-(1-methyl-6-oxo-1,6-dihydropyridin-3-yl)-1H-pyrazol-1-yl)methyl)benzonitrile] was run?
**A.** The IC50 was 500 to 5000 nM.

**Q.** `Cc1cccc(C(C)n2cc(-c3ccc(=O)n(C)c3)cn2)c1` (stereo not shown) [Example 20, 1-methyl-5-(1-(1-(m-tolyl)ethyl)-1H-pyrazol-4-yl)pyridin-2(1H)-one] was tested. Which IC50 did it give?
**A.** The IC50 was under 500 nM.

**Q.** With `Cn1cc(-c2cnn(Cc3ccccc3)c2)c(N2CCCC2)cc1=O` [Example 87, 5-(1-benzyl-1H-pyrazol-4-yl)-1-methyl-4-pyrrolidin-1-yl-1H-pyridin-2-one] as the molecule, how does the IC50 read?
**A.** Its IC50 is under 500 nM.

**Q.** Which IC50 does the source give for `Cn1cc(-c2cnn(-c3ccccc3C#N)c2)c(-c2ccn(C3CC3)c(=O)c2)cc1=O` [Example 222, 2-[4-(1′-Cyclopropyl-1-methyl-6,2′-dioxo-1,6,1′,2′-tetrahydro-[4,4′]bipyridinyl-3-yl)-pyrazol-1-yl]-benzonitrile] here?
**A.** The IC50 was under 500 nM.

**Q.** With `Cn1cc(-c2cn(C)c(=O)cc2C2CCCC2)cn1` [Example 142, 4-cyclopentyl-1-methyl-5-(1-methyl-1H-pyrazol-4-yl) pyridin-2(1H)-one] as the molecule, how does the IC50 read?
**A.** Its IC50 is 500 to 5000 nM.

**Q.** How did the IC50 turn out when `CCOc1cc(=O)n(C)cc1-c1cnn(C(C)c2ccc(C)cc2)c1` (stereo not shown) [Example 62, 4-ethoxy-1-methyl-5-(1-(1-(p-tolyl)ethyl)-1H-pyrazol-4-yl) pyridin-2(1H)-one] was run?
**A.** Its IC50 is under 500 nM.

**Q.** For `COc1ncc(-c2cc(=O)n(C)cc2-c2cnn(-c3ccccc3Cl)c2)cc1C` [Example 316, 5′-(1-(2-chlorophenyl)-1H-pyrazol-4-yl)-6-methoxy-1′,5-dimethyl-[3,4′-bipyridin]-2′(1′H)-one], which IC50 is on record?
**A.** The IC50 was under 500 nM.

**Q.** Which IC50 does the source give for `CCOc1cc(=O)n(C)cc1-c1cnn(-c2cccc(C)c2C#N)c1` [Example 179, 2-[4-(4-Ethoxy-1-methyl-6-oxo-1,6-dihydro-pyridin-3-yl)-pyrazol-1-yl]-6-methyl-benzonitrile] here?
**A.** Its IC50 is under 500 nM.

**Q.** Which IC50 does the source give for `CCOc1cc(=O)n(C)cc1-c1cnn(-c2cc(OC3CC3)ccc2C#N)c1` [Example 184, 4-Cyclopropoxy-2-[4-(4-ethoxy-1-methyl-6-oxo-1,6-dihydro-pyridin-3-yl)-pyrazol-1-yl]-benzonitrile] here?
**A.** The IC50 was under 500 nM.

**Q.** How did the IC50 turn out when `CC(c1ccccc1)n1cc(-c2ccc(=O)n(C)c2)cn1` (stereo not shown) [Example 12, 1-methyl-5-(1-(1-phenylethyl)-1H-pyrazol-4-yl)pyridin-2(1H)-one] was run?
**A.** The IC50 was 500 to 5000 nM.

**Q.** `Cn1cc(-c2cnn(Cc3ccccc3)c2)c(-n2cccn2)cc1=O` [Example 66, 5-(1-benzyl-1H-pyrazol-4-yl)-1-methyl-4-(1H-pyrazol-1-yl) pyridin-2(1H)-one] was tested. Which IC50 did it give?
**A.** The IC50 was 500 to 5000 nM.

**Q.** With `Cc1cc(=O)n(C)cc1-c1cnn(Cc2ccccc2)c1` [Example 7, 5-(1-benzyl-1H-pyrazol-4-yl)-1,4-dimethyl-pyridin-2(1H)-one] as the molecule, how does the IC50 read?
**A.** The IC50 was under 500 nM.

**Q.** How did the IC50 turn out when `Cn1cc(-c2cnn(-c3cccc(F)c3C#N)c2)c(-c2ccc(OC3CC3)nc2)cc1=O` [Example 362, 2-[4-[4-[6-(cyclopropoxy)-3-pyridyl]-1-methyl-6-oxo-3-pyridyl)pyrazol-1-yl]-6-fluoro-benzonitrile] was run?
**A.** The IC50 was under 500 nM.

**Q.** `CCOc1cc(=O)n(C)cc1-c1cnn(-c2cc(OC)ccc2C(=O)O)c1` [Example 247, 2-[4-(4-Ethoxy-1-methyl-6-oxo-1,6-dihydro-pyridin-3-yl)-pyrazol-1-yl]-4-methoxy-benzoic acid] was tested. Which IC50 did it give?
**A.** Its IC50 is under 500 nM.

**Q.** With `CCOc1cc(=O)n(C)cc1-c1cnn(C(C)c2ccc(-c3ccccc3)cc2)c1` (stereo not shown) [Example 63, 5-(1-(1-([1,1′-biphenyl]-4-yl)ethyl)-1H-pyrazol-4-yl)-4-ethoxy-1-methylpyridin-2(1H)-one] as the molecule, how does the IC50 read?
**A.** The IC50 was under 500 nM.

**Q.** `COc1ncc(-c2cc(=O)n(C)cc2-c2cnn(-c3ccccc3F)c2)cn1` [Example 320, 5-(1-(2-fluorophenyl)-1H-pyrazol-4-yl)-4-(2-methoxypyrimidin-5-yl)-1-methylpyridin-2(1H)-one] was tested. Which IC50 did it give?
**A.** Its IC50 is under 500 nM.

**Q.** Which IC50 does the source give for `Cn1cc(-c2cnn(-c3ccccc3C#N)c2)c(-c2cccc(Cl)c2)cc1=O` [Example 216, 2-{4-[4-(3-Chloro-phenyl)-1-methyl-6-oxo-1,6-dihydro-pyridin-3-yl]-pyrazol-1-yl}-benzonitrile] here?
**A.** The IC50 was under 500 nM.

**Q.** How did the IC50 turn out when `Cc1cc(-c2cnn(-c3ccccc3C#N)c2)cn(C)c1=O` [Example 254, 2-[4-(1,5-Dimethyl-6-oxo-1,6-dihydro-pyridin-3-yl)-pyrazol-1-yl]-benzonitrile] was run?
**A.** The IC50 was under 500 nM.

**Q.** `CN(C)c1ncc(-c2cc(=O)n(C)cc2-c2cnn(-c3cccc(F)c3C#N)c2)cn1` [Example 334, 2-[4-[4-[2-(dimethylamino)pyrimidin-5-yl]-1-methyl-6-oxo-3-pyridyl]pyrazol-1-yl]-6-fluoro-benzonitrile] was tested. Which IC50 did it give?
**A.** Its IC50 is under 500 nM.

**Q.** With `CC(c1cccnc1)n1cc(-c2ccc(=O)n(C)c2)cn1` (stereo not shown) [Example 24, 1-methyl-5-(1-(1-(pyridin-3-yl)ethyl)-1H-pyrazol-4-yl)pyridin-2(1H)-one] as the molecule, how does the IC50 read?
**A.** The IC50 was 500 to 5000 nM.
